Columns and labels:
Assay in all cases: Protein kinase inhibition assay
Type in all cases: biochemical
CaMKIIβ(h) = CaMKIIβ(h) (Homo sapiens, UniProt Q13554); settings: read-out: percent residual activity of CaMKIIβ(h)
Experimental: (§1) Certain compounds were tested for activity in protein kinase inhibition assays. All substrates were dissolved and diluted to working stocks in de-ionized water, apart from histone H1 (10× working stock in 20 mM MOPS pH 7.0), PDKtide (10× working stock in 50 mM Tris pH 7.0) ATF2 (which is typically stored at a 20× working stock in 50 mM Tris pH 7.5, 150 mM NaCl, 0.1 mM EGTA, 0.03% Brij-35, 50% glycerol, 1 mM benzamidine, 0.2 mM PMSF and 0.1% R-mercaptoethanol), KKLNRTLSFAEPG (SEQ ID NO:203) and RRRLSFAEPG (SEQ ID NO:204) (50 mM HEPES pH 7.4) and GGEEEEYFELVKKKK (SEQ ID NO:205) (20 mM MOPS pH 7.0). All kinases were pre-diluted to a 10× working concentration prior to addition into the assay. The composition of the dilution buffer for each kinase is detailed below.

WNK3(h) = WNK3(h) (Homo sapiens, UniProt Q9BYP7); settings: read-out: percent residual activity of WNK3(h)
Experimental: as §1

LIMK1(h) = LIMK1(h) (Homo sapiens, UniProt P53667); settings: read-out: percent residual activity of LIMK1(h)
Experimental: as §1

PASK(h) = PASK(h) (Homo sapiens, UniProt Q96RG2); settings: for remaining activity at 2.5 µM: read-out: percent residual activity of PASK(h)
Experimental: as §1

PTK5(h) = PTK5(h) (Homo sapiens, UniProt P42685); settings: read-out: percent residual activity of PTK5(h)
Experimental: as §1

cKit(D816H)(h) = cKit(D816H)(h) (Homo sapiens, UniProt P10721, D816H); settings: read-out: percent residual activity of cKit(D816H)(h)
Experimental: as §1

DAPK2(h) = DAPK2(h) (Homo sapiens, UniProt Q9UIK4); settings: read-out: percent residual activity of DAPK2(h)
Experimental: as §1

STK33(h) = STK33(h) (Homo sapiens, UniProt Q9BYT3); settings: read-out: percent residual activity of STK33(h)
Experimental: as §1

EphB1(h) = EphB1(h) (Homo sapiens, UniProt P54762); settings: read-out: percent residual activity of EphB1(h)
Experimental: as §1

NLK (h) = NLK (h) (Homo sapiens, UniProt Q9UBE8); settings: read-out: percent residual activity of NLK (h)
Experimental: as §1

FAK(h) = FAK(h) (Homo sapiens, UniProt Q05397); settings: read-out: percent residual activity of FAK(h)
Experimental: as §1

PrKX(h) = PrKX(h) (Homo sapiens, UniProt P51817); settings: read-out: percent residual activity of PrKX(h)
Experimental: as §1

EGFR(T790M, L858R)(h) = EGFR(T790M, L858R)(h) (Homo sapiens, UniProt P00533, L858R/T790M); settings: read-out: percent residual activity of EGFR(T790M, L858R)(h)
Experimental: as §1

EphA1(h) = EphA1(h) (Homo sapiens, UniProt P21709); settings: read-out: percent residual activity of EphA1(h)
Experimental: as §1

SRPK2(h) = SRPK2(h) (Homo sapiens, UniProt P78362); settings: read-out: percent residual activity of SRPK2(h)
Experimental: as §1

Flt4(h) = Flt4(h) (Homo sapiens, UniProt P35916); settings: read-out: percent residual activity of Flt4(h)
Experimental: as §1

CK1γ1(h) = CK1γ1(h) (Homo sapiens, UniProt Q9HCP0); settings: read-out: percent residual activity of CK1γ1(h)
Experimental: as §1

CDK9/cyclin T1(h) = CDK9/cyclin T1(h) (Homo sapiens, UniProt P50750); settings: read-out: percent residual activity of CDK9/cyclin T1(h)
Experimental: as §1

CaMKIIδ(h) = CaMKIIδ(h) (Homo sapiens, UniProt Q13557); settings: read-out: percent residual activity of CaMKIIδ(h)
Experimental: as §1

DCAMKL2(h) = DCAMKL2(h) (Homo sapiens, UniProt Q8N568); settings: read-out: percent residual activity of DCAMKL2(h)
Experimental: as §1

IRAK1(h) = IRAK1(h) (Homo sapiens, UniProt P51617); settings: read-out: percent residual activity of IRAK1(h)
Experimental: as §1

LKB1(h) = LKB1(h) (Homo sapiens, UniProt Q15831); settings: read-out: percent residual activity of LKB1(h)
Experimental: as §1

MLK1(h) = MLK1(h) (Homo sapiens, UniProt P80192); settings: read-out: percent residual activity of MLK1(h)
Experimental: as §1

SIK(h) = SIK(h) (Homo sapiens, UniProt P57059); settings: read-out: percent residual activity of SIK(h)
Experimental: as §1

CK1γ3(h) = CK1γ3(h) (Homo sapiens, UniProt Q9Y6M4); settings: read-out: percent residual activity of CK1γ3(h)
Experimental: as §1

EphA8(h) = EphA8(h) (Homo sapiens, UniProt P29322); settings: read-out: percent residual activity of EphA8(h)
Experimental: as §1

SRPK1(h) = SRPK1(h) (Homo sapiens, UniProt Q96SB4); settings: read-out: percent residual activity of SRPK1(h)
Experimental: as §1

Chain of PASK(h) (Q96RG2 whole entry): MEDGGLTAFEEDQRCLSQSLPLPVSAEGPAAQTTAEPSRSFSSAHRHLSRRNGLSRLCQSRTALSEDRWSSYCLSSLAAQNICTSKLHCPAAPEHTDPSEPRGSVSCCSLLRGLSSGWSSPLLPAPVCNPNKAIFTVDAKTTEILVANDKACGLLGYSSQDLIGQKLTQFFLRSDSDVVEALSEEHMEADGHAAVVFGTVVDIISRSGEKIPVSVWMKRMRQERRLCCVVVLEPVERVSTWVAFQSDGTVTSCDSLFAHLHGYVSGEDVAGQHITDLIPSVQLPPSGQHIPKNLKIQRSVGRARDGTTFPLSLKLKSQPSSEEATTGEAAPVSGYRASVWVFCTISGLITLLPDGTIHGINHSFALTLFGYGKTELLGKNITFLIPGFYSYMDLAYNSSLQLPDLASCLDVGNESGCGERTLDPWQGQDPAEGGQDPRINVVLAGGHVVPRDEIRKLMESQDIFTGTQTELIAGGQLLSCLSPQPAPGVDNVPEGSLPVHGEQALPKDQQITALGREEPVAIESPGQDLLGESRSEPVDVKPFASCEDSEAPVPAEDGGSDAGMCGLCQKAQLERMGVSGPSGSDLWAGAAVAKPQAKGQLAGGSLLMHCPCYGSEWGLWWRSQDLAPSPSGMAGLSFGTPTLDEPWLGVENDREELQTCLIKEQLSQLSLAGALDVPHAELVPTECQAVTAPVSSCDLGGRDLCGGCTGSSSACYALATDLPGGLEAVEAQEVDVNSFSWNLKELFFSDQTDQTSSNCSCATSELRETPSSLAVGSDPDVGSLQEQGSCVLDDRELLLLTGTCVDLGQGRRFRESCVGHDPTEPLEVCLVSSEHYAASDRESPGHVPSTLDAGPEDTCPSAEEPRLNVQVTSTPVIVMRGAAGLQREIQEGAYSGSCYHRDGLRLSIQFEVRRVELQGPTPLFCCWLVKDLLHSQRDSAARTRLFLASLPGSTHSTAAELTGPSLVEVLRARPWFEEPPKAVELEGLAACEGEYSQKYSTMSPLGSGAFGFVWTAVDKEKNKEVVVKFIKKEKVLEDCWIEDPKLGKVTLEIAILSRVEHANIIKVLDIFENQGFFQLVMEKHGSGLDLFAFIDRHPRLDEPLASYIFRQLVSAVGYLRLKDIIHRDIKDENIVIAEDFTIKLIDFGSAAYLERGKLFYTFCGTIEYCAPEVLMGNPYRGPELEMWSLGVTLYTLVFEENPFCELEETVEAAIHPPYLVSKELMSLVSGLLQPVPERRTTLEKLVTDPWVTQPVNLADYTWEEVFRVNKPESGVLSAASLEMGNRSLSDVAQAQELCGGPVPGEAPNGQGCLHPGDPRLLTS
Chain of CK1γ1(h) (Q9HCP0 whole entry): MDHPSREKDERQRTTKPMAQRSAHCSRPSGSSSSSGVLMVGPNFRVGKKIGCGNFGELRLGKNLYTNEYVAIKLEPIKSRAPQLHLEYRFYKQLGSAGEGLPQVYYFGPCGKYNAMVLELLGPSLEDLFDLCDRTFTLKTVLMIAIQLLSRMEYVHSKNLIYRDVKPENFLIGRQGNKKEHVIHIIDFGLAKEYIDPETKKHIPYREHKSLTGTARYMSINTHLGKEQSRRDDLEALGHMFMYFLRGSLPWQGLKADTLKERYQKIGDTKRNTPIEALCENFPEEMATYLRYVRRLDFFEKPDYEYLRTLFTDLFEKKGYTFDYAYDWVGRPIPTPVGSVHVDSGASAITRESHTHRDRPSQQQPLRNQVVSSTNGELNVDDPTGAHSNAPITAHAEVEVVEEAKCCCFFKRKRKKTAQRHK
Chain of EphA8(h) (P29322 28-1005): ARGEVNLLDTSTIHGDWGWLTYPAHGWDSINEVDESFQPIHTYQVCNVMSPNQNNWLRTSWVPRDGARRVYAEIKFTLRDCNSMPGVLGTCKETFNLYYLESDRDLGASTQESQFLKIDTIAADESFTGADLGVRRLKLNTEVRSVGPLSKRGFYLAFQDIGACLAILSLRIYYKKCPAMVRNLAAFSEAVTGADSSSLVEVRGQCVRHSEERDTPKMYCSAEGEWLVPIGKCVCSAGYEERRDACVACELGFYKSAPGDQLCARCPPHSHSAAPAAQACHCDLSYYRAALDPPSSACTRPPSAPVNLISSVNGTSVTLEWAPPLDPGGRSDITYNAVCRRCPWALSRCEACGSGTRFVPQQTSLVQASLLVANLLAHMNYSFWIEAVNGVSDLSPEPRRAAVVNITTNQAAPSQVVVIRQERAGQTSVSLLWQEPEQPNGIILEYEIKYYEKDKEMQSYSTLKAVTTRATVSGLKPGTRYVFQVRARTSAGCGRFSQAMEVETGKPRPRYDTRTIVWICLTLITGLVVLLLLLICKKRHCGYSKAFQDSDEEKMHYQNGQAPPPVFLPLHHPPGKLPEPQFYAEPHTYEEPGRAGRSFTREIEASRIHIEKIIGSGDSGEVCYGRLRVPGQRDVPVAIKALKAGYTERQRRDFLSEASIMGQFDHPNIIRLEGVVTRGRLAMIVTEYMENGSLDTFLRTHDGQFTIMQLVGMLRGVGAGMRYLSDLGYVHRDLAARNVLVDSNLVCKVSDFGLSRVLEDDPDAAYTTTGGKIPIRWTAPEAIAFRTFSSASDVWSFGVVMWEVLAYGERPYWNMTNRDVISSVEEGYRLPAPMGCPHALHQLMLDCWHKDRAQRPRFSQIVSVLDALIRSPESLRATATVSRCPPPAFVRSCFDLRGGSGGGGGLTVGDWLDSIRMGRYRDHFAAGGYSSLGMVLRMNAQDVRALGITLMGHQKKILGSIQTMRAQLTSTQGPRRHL
Chain of CK1γ3(h) (Q9Y6M4 whole entry): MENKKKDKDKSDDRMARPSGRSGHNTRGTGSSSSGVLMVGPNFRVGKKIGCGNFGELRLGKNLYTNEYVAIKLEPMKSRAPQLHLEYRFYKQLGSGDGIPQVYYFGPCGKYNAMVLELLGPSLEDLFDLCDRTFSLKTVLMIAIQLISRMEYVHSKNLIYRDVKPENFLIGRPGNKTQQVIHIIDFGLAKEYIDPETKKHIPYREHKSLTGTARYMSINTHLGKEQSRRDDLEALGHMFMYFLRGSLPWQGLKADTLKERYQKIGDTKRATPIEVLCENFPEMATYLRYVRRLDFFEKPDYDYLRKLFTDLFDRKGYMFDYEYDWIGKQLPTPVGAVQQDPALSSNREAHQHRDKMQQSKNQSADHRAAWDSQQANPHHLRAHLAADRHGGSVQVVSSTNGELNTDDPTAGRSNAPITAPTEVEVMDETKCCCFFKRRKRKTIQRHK
Chain of FAK(h) (Q05397 whole entry): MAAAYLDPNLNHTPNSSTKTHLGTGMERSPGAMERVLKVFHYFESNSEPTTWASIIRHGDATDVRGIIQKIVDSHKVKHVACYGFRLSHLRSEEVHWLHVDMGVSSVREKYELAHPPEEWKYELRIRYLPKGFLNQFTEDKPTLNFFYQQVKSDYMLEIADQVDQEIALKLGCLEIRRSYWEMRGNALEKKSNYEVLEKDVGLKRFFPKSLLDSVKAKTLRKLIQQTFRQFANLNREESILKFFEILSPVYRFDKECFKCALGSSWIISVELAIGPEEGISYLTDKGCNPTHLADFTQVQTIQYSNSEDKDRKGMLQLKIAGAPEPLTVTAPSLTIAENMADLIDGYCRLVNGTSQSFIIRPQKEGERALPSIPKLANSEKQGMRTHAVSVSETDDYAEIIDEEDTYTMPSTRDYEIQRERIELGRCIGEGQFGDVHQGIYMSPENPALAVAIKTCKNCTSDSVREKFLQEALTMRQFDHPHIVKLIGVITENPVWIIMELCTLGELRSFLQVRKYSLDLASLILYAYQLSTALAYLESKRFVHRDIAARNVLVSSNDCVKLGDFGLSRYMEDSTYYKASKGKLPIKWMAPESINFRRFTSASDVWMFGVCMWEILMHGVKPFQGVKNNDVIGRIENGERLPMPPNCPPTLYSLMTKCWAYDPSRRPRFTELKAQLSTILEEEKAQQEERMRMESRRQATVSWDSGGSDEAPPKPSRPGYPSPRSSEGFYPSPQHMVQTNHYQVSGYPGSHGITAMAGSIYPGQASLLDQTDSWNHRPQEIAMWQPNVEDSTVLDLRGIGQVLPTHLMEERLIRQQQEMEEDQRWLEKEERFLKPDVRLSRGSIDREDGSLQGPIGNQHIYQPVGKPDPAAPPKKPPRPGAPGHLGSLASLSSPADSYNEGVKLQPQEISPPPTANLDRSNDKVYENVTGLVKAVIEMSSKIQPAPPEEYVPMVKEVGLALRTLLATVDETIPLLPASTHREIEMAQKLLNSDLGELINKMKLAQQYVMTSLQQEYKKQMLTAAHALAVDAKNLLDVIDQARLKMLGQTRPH
Chain of SIK(h) (P57059 whole entry): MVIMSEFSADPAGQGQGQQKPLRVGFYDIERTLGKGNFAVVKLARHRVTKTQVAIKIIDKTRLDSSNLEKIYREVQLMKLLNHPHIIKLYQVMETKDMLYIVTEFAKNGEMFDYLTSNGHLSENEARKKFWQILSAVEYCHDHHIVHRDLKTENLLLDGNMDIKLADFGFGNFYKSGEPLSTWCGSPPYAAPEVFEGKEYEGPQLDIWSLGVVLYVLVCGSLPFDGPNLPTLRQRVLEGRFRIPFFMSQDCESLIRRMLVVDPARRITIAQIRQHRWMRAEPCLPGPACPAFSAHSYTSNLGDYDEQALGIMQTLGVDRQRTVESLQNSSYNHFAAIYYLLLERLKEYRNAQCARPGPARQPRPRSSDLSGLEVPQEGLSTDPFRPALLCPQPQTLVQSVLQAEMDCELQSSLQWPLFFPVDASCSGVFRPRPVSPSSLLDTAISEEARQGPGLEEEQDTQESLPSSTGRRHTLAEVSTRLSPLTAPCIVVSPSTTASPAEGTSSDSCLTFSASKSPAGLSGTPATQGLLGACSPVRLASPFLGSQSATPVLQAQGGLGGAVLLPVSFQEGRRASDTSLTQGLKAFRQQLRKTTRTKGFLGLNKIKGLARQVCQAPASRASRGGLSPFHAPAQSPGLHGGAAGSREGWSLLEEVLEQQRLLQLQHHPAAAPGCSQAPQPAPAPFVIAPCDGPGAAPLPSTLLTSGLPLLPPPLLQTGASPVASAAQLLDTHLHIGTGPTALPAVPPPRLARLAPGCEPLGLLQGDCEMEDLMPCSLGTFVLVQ

CN1CCCC1CCNC(=O)c1cn2c3c(c(N4CCC(c5cnccn5)C4)c(F)cc3c1=O)Oc1cc3ccccc3cc1-2 (stereo not shown) [Compound A-1] gave a remaining activity at 2.5 µM (CaMKIIβ(h)) of 101%, a remaining activity at 2.5 µM (WNK3(h)) of 98% and a remaining activity at 2.5 µM (LIMK1(h)) of 97%. It also gave an inhibition at 2.5 µM (PASK(h)) greater than 80%, a remaining activity at 2.5 µM (PASK(h)) of 10% and a remaining activity at 2.5 µM (PTK5(h)) of 116%. It also gave a remaining activity at 2.5 µM (cKit(D816H)(h)) of 73%, a remaining activity at 2.5 µM (DAPK2(h)) of 109% and a remaining activity at 2.5 µM (STK33(h)) of 90%. For the same compound, the remaining activity at 2.5 µM (EphB1(h)) was 125%, the remaining activity at 2.5 µM (NLK (h)) was 90% and the remaining activity at 2.5 µM (FAK(h)) was 94%. For the same compound, the remaining activity at 2.5 µM (PrKX(h)) was 75%, the remaining activity at 2.5 µM (EGFR(T790M, L858R)(h)) was 93% and the remaining activity at 2.5 µM (EphA1(h)) was 69%. For the same compound, the remaining activity at 2.5 µM (SRPK2(h)) was 88%, the remaining activity at 2.5 µM (Flt4(h)) was 70% and the remaining activity at 2.5 µM (CK1γ1(h)) was 90%. The remaining activity at 2.5 µM (CDK9/cyclin T1(h)) was 116%, the remaining activity at 2.5 µM (CaMKIIδ(h)) was 88% and the remaining activity at 2.5 µM (DCAMKL2(h)) was 48%. It also gave a remaining activity at 2.5 µM (IRAK1(h)) of 86%, a remaining activity at 2.5 µM (LKB1(h)) of 98% and a remaining activity at 2.5 µM (MLK1(h)) of 85%. For the same compound, the remaining activity at 2.5 µM (SIK(h)) was 79%, the remaining activity at 2.5 µM (CK1γ3(h)) was 103% and the remaining activity at 2.5 µM (EphA8(h)) was 100%. For the same compound, the remaining activity at 2.5 µM (SRPK1(h)) was 91%.

Work on CC(=O)N1CCN(c2ccc3c(=O)c(C(=O)NCCN4CCCC4)c4n(C)c5ccccc5n4c3n2)CC1 [Compound B-1] yielded a remaining activity at 2.5 µM (CaMKIIβ(h)) of 100%, a remaining activity at 2.5 µM (WNK3(h)) of 120% and a remaining activity at 2.5 µM (LIMK1(h)) of 100%. It also gave a remaining activity at 2.5 µM (PASK(h)) of 100%, a remaining activity at 2.5 µM (PTK5(h)) of 107% and a remaining activity at 2.5 µM (cKit(D816H)(h)) of 92%. The remaining activity at 2.5 µM (DAPK2(h)) was 102%, the remaining activity at 2.5 µM (STK33(h)) was 102% and the remaining activity at 2.5 µM (EphB1(h)) was 75%. The remaining activity at 2.5 µM (NLK (h)) was 109%, the remaining activity at 2.5 µM (FAK(h)) was 102% and the remaining activity at 2.5 µM (PrKX(h)) was 96%. It also gave a remaining activity at 2.5 µM (EGFR(T790M, L858R)(h)) of 99%, a remaining activity at 2.5 µM (EphA1(h)) of 96% and a remaining activity at 2.5 µM (SRPK2(h)) of 88%. The remaining activity at 2.5 µM (Flt4(h)) was 103%, the remaining activity at 2.5 µM (CK1γ1(h)) was 100% and the remaining activity at 2.5 µM (CDK9/cyclin T1(h)) was 100%. It also gave a remaining activity at 2.5 µM (CaMKIIδ(h)) of 96%, a remaining activity at 2.5 µM (DCAMKL2(h)) of 111% and a remaining activity at 2.5 µM (IRAK1(h)) of 102%. It also gave a remaining activity at 2.5 µM (LKB1(h)) of 101%, a remaining activity at 2.5 µM (MLK1(h)) of 86% and a remaining activity at 2.5 µM (SIK(h)) of 94%. It also gave a remaining activity at 2.5 µM (CK1γ3(h)) of 114%, a remaining activity at 2.5 µM (EphA8(h)) of 100% and a remaining activity at 2.5 µM (SRPK1(h)) of 99%.

Source: patent US20070117770A1, “Human ribosomal DNA (rDNA) and ribosomal RNA (rRNA) nucleic acids and uses thereof” (Cylene Pharmaceuticals, Inc., priority 2005, published 2007)
